Reference: patent US11236129B2, “IL-17A binding peptides and medical uses thereof” (Dompe' Farmaceutici S.P.A., priority 2018, dated 2022)
Residues, ends and D or L forms follow the SMILES beside them.

Columns and labels:
[1] = format: physicochemical; settings: pH 7.8
Method in brief: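 Peptides dissolved in phosphate buffer pH 7.8 as 10 mM stocks (more dilute for less soluble ones) and stored at 25 °C. Content measured by reversed-phase UHPLC (C18, 0.5% formic acid water/acetonitrile gradient, DAD 220-400 nm, ESI-MS ion trap) after 1:100 dilution to 100 μM, against 100 μM standards, at T0, 3 days and 1 week.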

[2] = molecular target: IL-17RA/IL17RC dimerization induced by IL-17A (Homo sapiens, UniProt Q16552); test: IL-17RA/IL17RC dimerization assay in response to IL-17A (PathHunter Cytokine Receptor Assay); format: cell-based; settings: IL-17A at EC80; read-out: IC50 in IL-17RA/IL7RC dimerization assay
Method in brief: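 PathHunter cells with IL-17RA and IL-17RC tagged for β-galactosidase complementation were preincubated 60 min with peptide (1% vehicle). IL-17A was then added at EC80 for 6–16 h at 37 °C, and chemiluminescence was read. Inhibition is relative to the EC80 and vehicle controls.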

[3] = Isoelectric point, log D and log P (SiriusT3); format: physicochemical; settings: for IP (isoelectric point): 25±1° C., 0.15 M KCl; for logD: pH 7.4, pH 7.4, octanol/ISA water, read-out: Log D (7.4); for logP: octanol/ISA water, read-out: logP

Chain of IL-17RA/IL17RC dimerization induced by IL-17A (Q16552 24-155): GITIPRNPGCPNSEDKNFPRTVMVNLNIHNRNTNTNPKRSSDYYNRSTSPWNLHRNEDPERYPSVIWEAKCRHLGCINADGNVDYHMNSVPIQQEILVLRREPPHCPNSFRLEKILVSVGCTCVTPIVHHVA

solubility [1] [mM] | IC50 [2] [nM] | IP (isoelectric point) [3] | logD [3] | logP [3] | SMILES
≥ 0.1 | < 1000 | 12.96 | -3.89 |  | CC[C@H](C)[C@H](NC(=O)[C@H](Cc1c[nH]c2ccccc12)NC(=O)[C@H](CCC(=O)O)NC(=O)[C@H](Cc1ccc(O)cc1)NC(=O)[C@H](CC(C)C)NC(=O)[C@H](CC(=O)O)NC(=O)[C@H](C)NC(=O)[C@@H]1CCCN1C(=O)[C@@H](NC(=O)[C@@H](NC(=O)[C@@H](NC(=O)[C@H](CCSC)NC(=O)[C@@H](NC(C)=O)C(C)C)C(C)C)[C@@H](C)O)[C@@H](C)CC)C(=O)N[C@@H](CCC(=O)O)C(=O)N[C@@H](CCC(=O)O)C(=O)N[C@@H](CCCNC(=N)N)C(=O)N[C@@H](CCCNC(=N)N)C(=O)N[C@@H](CCCNC(=N)N)C(=O)N[C@@H](CCCNC(=N)N)C(=O)N[C@@H](CCCNC(=N)N)C(=O)N[C@@H](CCCNC(=N)N)C(=O)N[C@@H](CCCNC(=N)N)C(=O)N[C@@H](CCCNC(=N)N)C(N)=O [SEQ ID NO: 30] (Ac-VMVTIPADLYEWIEERRRRRRRR-NH2)
< 0.05 | < 1000 | 5.14 | 2.15 | 2.45 | CC[C@H](C)[C@H](NC(=O)[C@H](Cc1c[nH]c2ccccc12)NC(=O)[C@H](CCC(=O)O)NC(=O)[C@H](Cc1ccc(O)cc1)NC(=O)[C@H](CC(C)C)NC(=O)[C@H](CC(=O)O)NC(=O)[C@H](C)NC(=O)[C@@H]1CCCN1C(=O)[C@@H](NC(=O)[C@@H](NC(=O)[C@@H](NC(=O)[C@H](CCSC)NC(=O)[C@@H](NC(C)=O)C(C)C)C(C)C)[C@@H](C)O)[C@@H](C)CC)C(=O)N[C@@H](CCC(=O)O)C(=O)N[C@@H](CCC(=O)O)C(=O)N[C@H](C(=O)N1CCC[C@H]1C(=O)NCC(=O)N[C@@H](Cc1c[nH]c2ccccc12)C(=O)NCC(N)=O)C(C)C [SEQ ID NO: 24] (Ac-VMVTIPADLYEWIEEVPGWG-NH2)
> 10 | < 1000 | 5.14 | 0.148 | 0.69 | CC[C@H](C)[C@H](NC(=O)[C@H](Cc1c[nH]c2ccccc12)NC(=O)[C@H](CCC(=O)O)NC(=O)[C@H](Cc1ccc(O)cc1)NC(=O)[C@H](CC(C)C)NC(=O)[C@H](CC(=O)O)NC(=O)[C@H](C)NC(=O)[C@@H]1CCCN1C(=O)[C@@H](NC(=O)[C@@H](NC(=O)[C@@H](NC(=O)[C@H](CCSC)NC(=O)[C@@H](NC(C)=O)C(C)C)C(C)C)[C@@H](C)O)[C@@H](C)CC)C(=O)N[C@@H](CCC(=O)O)C(=O)N[C@@H](CCC(=O)O)C(=O)N[C@H](C(=O)N1CCC[C@H]1C(=O)NCC(=O)N[C@@H](C)C(=O)NCC(N)=O)C(C)C [SEQ ID NO: 27] (Ac-VMVTIPADLYEWIEEVPGAG-NH2)
> 10 | < 1000 | 4.26 | -3.18 | 0.4 | CC[C@H](C)[C@H](NC(=O)[C@H](Cc1c[nH]c2ccccc12)NC(=O)[C@H](CCC(=O)O)NC(=O)[C@H](Cc1ccc(O)cc1)NC(=O)[C@H](CC(C)C)NC(=O)[C@H](CC(=O)O)NC(=O)[C@H](C)NC(=O)[C@@H]1CCCN1C(=O)[C@@H](NC(=O)[C@@H](NC(=O)[C@@H](NC(=O)[C@H](CCSC)NC(=O)[C@@H](NC(C)=O)C(C)C)C(C)C)[C@@H](C)O)[C@@H](C)CC)C(=O)N[C@@H](CCC(=O)O)C(=O)N[C@@H](CCC(=O)O)C(=O)NCC(=O)NCC(=O)N[C@H](C(=O)N[C@@H](Cc1c[nH]c2ccccc12)C(=O)N[C@@H](Cc1c[nH]c2ccccc12)C(=O)N[C@H](C(=O)N[C@@H](CCC(=O)O)C(=O)N[C@@H](Cc1c[nH]c2ccccc12)C(=O)N[C@@H](CO)C(=O)N[C@@H](CCC(N)=O)C(N)=O)[C@@H](C)O)[C@@H](C)O [SEQ ID NO: 22] (Ac-VMVTIPADLYEWIEEGGTWWTEWSQ-NH2)
